Source: patent US20100227313A1, “Methods and Compositions for Determining Altered Susceptibility of HIV-1 to Protease Inhibitor Treatment” (priority 2007, published 2010)

Tests used:
HIV-1 = assay: Resistance test vector (PHENOSENSE) phenotypic susceptibility assay, fold change in IC50, correlated with genotype (Fisher's Exact test, odds ratio); assay type: cell-based, human immunodeficiency virus type 1; conditions: 2862 clinical samples; FC relative to wild-type (NL4-3); FIG. 1
Source text: See Petropoulos et al., 2000, Antimicrob. Agents Chemother. 44:920-928; U.S. Pat. Nos. 5,837,464 and 6,242,187. PHENOSENSE™ is a phenotypic assay that achieves the benefits of phenotypic testing and overcomes the drawbacks of previous assays.
PHENOSENSE™ can obtain results with only one round of viral replication, thereby avoiding selection of subpopulations of virus that can occur during preparation of viral stocks required for assays that rely on fully infectious virus.
A resistance test vector (“RTV”) can then be constructed by incorporating the amplified viral gene sequences into a replication defective viral vector by using any method known in the art of incorporating gene sequences into a vector. In one embodiment, restrictions enzymes and conventional cloning methods are used. See Sambrook et al., 2001, Molecular Cloning: A Laboratory Manual, Cold Spring Harbor Laboratory, 3rd ed., NY; and Ausubel et al., 1989, Current Protocols in Molecular Biology, Greene Publishing Associates and Wiley Interscience, NY. In a preferred embodiment, ApaI and PinAI restriction enzymes are used. Preferably, the replication defective viral vector is the indicator gene viral vector (“IGVV”). In a preferred embodiment, the viral vector contains a means for detecting replication of the RTV. Preferably, the viral vector contains a luciferase expression cassette.
The assay can be performed by first co-transfecting host cells with RTV DNA and a plasmid that expresses the envelope proteins of another retrovirus, for example, amphotropic murine leukemia virus (MLV). Following transfection, viral particles can be harvested from the cell culture and used to infect fresh target cells in the presence of varying amounts of anti-viral drug(s). The completion of a single round of viral replication in the fresh target cells can be detected by the means for detecting replication contained in the vector. In a preferred embodiment, the completion of a single round of viral replication results in the production of luciferase. By monitoring the amount of, e.g., luciferase activity in the presence of the varying amounts of antiviral drug(s), a resistance curve can be constructed by plotting luciferase activity versus drug concentration. The susceptibility of an HIV, or population of HIV, can be determined by measuring the concentration of antiviral drug at which the luciferase activity detected is half-maximal. This number, the IC50, provides a standard and convenient measure of drug resistance.
Patient derived segment(s) corresponding to the HIV protease and reverse transcriptase coding regions were amplified by the reverse transcription polymerase chain reaction method (RT PCR) using viral RNA isolated from viral particles present in the plasma or serum of HIV infected individuals as follows. Viral RNA was isolated from the plasma or serum using oligo-dT magnetic beads (Dynal Biotech, Oslo, Norway), followed by washing and elution of viral RNA. The RT PCR protocol was divided into two steps. A retroviral reverse transcriptase (e.g. Moloney MuLV reverse transcriptase (Roche Molecular Systems, Inc., Branchburg, N.J.; Invitrogen, Carlsbad, Calif.), or avian myeloblastosis virus (AMV) reverse transcriptase, (Boehringer Mannheim, Indianapolis, Ind.) was used to copy viral RNA into cDNA. The cDNA was then amplified using a thermostable DNA polymerase (e.g. Taq (Roche Molecular Systems, Inc., Branchburg, N.J.), Tth (Roche Molecular Systems, Inc., Branchburg, N.J.), PRIMEZYME™ (isolated from Thermus brockianus, Biometra, Gottingen, Germany)) or a combination of thermostable polymerases as described for the performance of “long PCR” (Barnes, W.M., 1994, Proc. Natl. Acad. Sci, USA 91, 2216 20) (e.g. Expand High Fidelity PCR System (Taq+Pwo), (Boehringer Mannheim. Indianapolis, Ind.); GENEAMP XL™ PCR kit (Tth+Vent), (Roche Molecular Systems, Inc., Branchburg, N.J.); or […] II®, Clontech, Palo Alto, Calif.)

HIV protease = conditions: 2006, cited from earlier work; for effect of I47A mutation on susceptibility: de Mendoza et al.; for effect of L33F mutation in protease on susceptibility: Kozal et al.

| Structure (SMILES) | correlation of FC in susceptibility with the FC in susceptibility for DRV (HIV-1) | effect of I47A mutation on susceptibility (HIV protease) | effect of L33F mutation in protease on susceptibility (HIV protease) |
| --- | --- | --- | --- |
| COC(=O)N[C@H](C(=O)N[C@@H](Cc1ccccc1)[C@@H](O)CN(Cc1ccc(-c2ccccn2)cc1)NC(=O)[C@@H](NC(=O)OC)C(C)(C)C)C(C)(C)C [ATV, atazanavir] | no correlation | – | – |
| Cc1cccc(C)c1OCC(=O)N[C@@H](Cc1ccccc1)[C@@H](O)C[C@H](Cc1ccccc1)NC(=O)[C@H](C(C)C)N1CCCNC1=O [LPV, lopinavir] | no correlation | reduced susceptibility | correlate with resistance |
| CC(C)c1nc(CN(C)C(=O)N[C@H](C(=O)N[C@@H](Cc2ccccc2)C[C@H](O)[C@H](Cc2ccccc2)NC(=O)OCc2cncs2)C(C)C)cs1 [ritonavir] | – | – | correlate with resistance |
| CC(C)(C)NC(=O)[C@@H]1C[C@@H]2CCCC[C@@H]2CN1C[C@@H](O)[C@H](Cc1ccccc1)NC(=O)[C@H](CC(N)=O)NC(=O)c1ccc2ccccc2n1 [saquinavir] | – | hypersusceptibility | correlate with resistance |
